# Assay results: patent EP3324923B1, “COMPOSITIONS AND METHODS USING PALYTHINE” (King's College London, priority 2015, dated 2017)
# System: HaCaT cells
# Assay: Reactive oxygen species detection by FACS analysis (carboxy-H2DCFDA), Example 8
# Type: cell-based, human
# Settings: for Median corrected Average: FACS Analysis - Reactive Oxygen Species
# Protocol: Intracellular ROS generation was measured using the detection agent 5-(and-6)-carboxy-2',7'- dichlorodihydrofluorescein diacetate (carboxy-H2DCFDA). […] More specifically, total intracellular ROS generation was studied using 5-(and-6)-carboxy-2',7'-dichlorodihydrofluorescein diacetate (carboxy-H2DCFDA).
# Powdered sunscreens were dissolved in PBS (Sigma-Aldrich, UK) at a concentration in which they can dissolve fully (0-0.3%). They were then applied (200ul/well) to wells of a 24 well plate containing a washed monolayer of cells. Cells were then irradiated and the sunscreen removed and washed post treatment.
# Irradiation was carried out on cells in monolayers at a distance of 3 cm (Solar Simulator) in cold PBS or PBS + sunscreen. The plate was always placed on a cooling platform at 4°C to avoid overheating of the cells. Unirradiated samples were maintained in PBS for the same time and temperature as irradiated samples.
# Detection of reactive oxygen species was performed by FACS analysis using 5-(and 6-)-carboxy-2,',7'-dichlorodihydrofluorescein diacetate (Carboy-H2-DCFDA) (Invitrogen, Paisley, UK). Carboy-H2-DCFDA is a non-fluorescent dye that is activated into a fluorescent dye by ROS cleaving acetate groups from the molecule.
# Cells were grown in a 12 well plate washed twice in PBS and irradiated +/- sunscreens. Control cells were unirradiated and positive controls were treated with 0.03% hydrogen peroxide for 5 minutes. Cells were washed again twice in PBS and then 1ML of Carboy-H2-DCFDA diluted in PBS to a concentration of 5uM was added to each well and were incubated for 2 minutes in a cell culture incubator in the dark (95% air, 5% CO2, 37°C, humidified). Each well was then washed twice with PBS to remove any excess dye.
# Cells were then trypsinised, centrifuged at 400g for 4 minutes at 4°C and resuspended in 0.5ml of PBS + 0.1%w/v BSA and transferred to FACS tubes. Samples were then analysed with a Becton Dickson CANTO 3. The viable proportion of the cell population was quantified by the addition of 2.5ug/ml of propidium iodide immediately before the analysis.
smiles,measurement,setting,value
COC1=C(NCC(=O)O)CC(O)(CO)CC1=N (stereo not drawn) [palythine],Median corrected Average,0.1% palythine,36.35
same,Median corrected Average,0.3% palythine,33.9
same,total intracellular ROS generated after exposure to UVA and UVB,carboxy-H2DCFDA,significantly reduce
